The target in one assay is T1, hCB1 (Homo sapiens, UniProt P21554).
T1 construct: made in house; host or cells: Sf9 insect cells (baculovirus), P2 membranes
T1 sequence (P21554 whole entry): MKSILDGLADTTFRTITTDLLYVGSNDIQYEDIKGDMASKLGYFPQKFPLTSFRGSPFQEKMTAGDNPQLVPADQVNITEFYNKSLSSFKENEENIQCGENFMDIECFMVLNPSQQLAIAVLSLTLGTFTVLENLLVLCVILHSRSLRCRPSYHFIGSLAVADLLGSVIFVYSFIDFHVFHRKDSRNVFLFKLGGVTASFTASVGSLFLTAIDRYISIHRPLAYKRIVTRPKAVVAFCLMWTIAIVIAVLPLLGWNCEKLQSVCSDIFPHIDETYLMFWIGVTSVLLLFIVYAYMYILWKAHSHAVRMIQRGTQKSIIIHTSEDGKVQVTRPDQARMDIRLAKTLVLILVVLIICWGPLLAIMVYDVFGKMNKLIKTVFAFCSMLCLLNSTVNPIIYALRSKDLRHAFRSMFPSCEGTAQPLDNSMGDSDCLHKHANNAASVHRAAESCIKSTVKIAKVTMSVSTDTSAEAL
Nature of the assay: Agonist-induced GTP binding (GTPγ35S) assay at CB1, Example 8. It is filed as biochemical. The settings on record: IC50 at CB1, determined as described in Example 8; read-out: IC50. Put shortly:
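Membranes from Sf9 cells co-expressing hCB1 and heterotrimeric G-protein (10 μg protein) in Tris pH 7.4 buffer with 5 μM GDP. Test compounds (10^−10–10^−5 M) competed against 1 nM CP55,940 with […] GTPγ35S, 60 min at room temperature. Filter-bound radioactivity by scintillation, expressed as percent above basal.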
For the compound `CC(C)Oc1ccc(NC(=O)Nc2cccc(C#N)c2)cc1` [Compound 422, 1-(3-cyanophenyl)-3-(4-isopropoxyphenyl)urea], the IC50 was less than 2 µM. With `Cc1ccc(NC(=O)Nc2cccc(OC(F)F)c2)cc1F` [Compound 696, 1-[3-(difluoromethoxy)phenyl]-3-(3-fluoro-4-methylphenyl)urea], the IC50 is less than 2 µM. The same measure, in the same setting: the value for `COc1cccc(NC(=O)Nc2ccc([N+](=O)[O-])cc2)c1` [Compound 556, 1-(3-methoxyphenyl)-3-(4-nitrophenyl)urea] was less than 2 µM; that for `CCOC(=O)c1ccc(NC(=O)Nc2cccc(OC(C)C)c2)cc1` [Compound 673, ethyl 4-({[(3-isopropoxyphenyl)amino]carbonyl}amino)benzoate] was less than 2 µM. Same read-out and setting: the figure for `CC(C)Oc1ccc(NC(=O)Nc2ccccc2OC(F)F)cc1` [Compound 537, 1-[2-(difluoromethoxy)phenyl]-3-(4-isopropoxyphenyl)urea] is less than 2 µM; for `COC(=O)c1cccc(NC(=O)Nc2ccc(OCC#N)cc2)c1` [Compound 716, methyl 3-[({[4-(cyanomethoxy)phenyl]amino}carbonyl)amino] benzoate] it is less than 2 µM; for `CCOc1cccc(NC(=O)Nc2cc(F)cc(F)c2)c1` [Compound 702, 1-(3,5-difluorophenyl)-3-(3-ethoxyphenyl)urea] it is less than 2 µM. In the case of `N#Cc1cccc(NC(=O)Nc2ccc3c(c2)CCC3)c1` [Compound 454, 1-(3-cyanophenyl)-3-(2,3-dihydro-1H-inden-5-yl)urea], the IC50 is less than 2 µM. For the compound `Cc1ccc(NC(=O)Nc2ccc(OCC#N)cc2)cc1` [Compound 465, 1-[4-(cyanomethoxy)phenyl]-3-(4-methylphenyl)urea], the IC50 is less than 2 µM.

Turning to `CC(C)Oc1ccc(NC(=O)Nc2ccccc2)cc1` [Compound 375, 1-(4-isopropoxyphenyl)-3-phenylurea], the IC50 was less than 2 µM. Turning to `COc1ccc(NC(=O)Nc2ccc(OC(F)F)cc2)cc1` [Compound 530, 1-[4-(difluoromethoxy)phenyl]-3-(4-methoxyphenyl)urea], the IC50 was less than 2 µM. As for `N#CCc1ccc(NC(=O)Nc2ccc(F)cc2)cc1` [Compound 462, 1-[4-(cyanomethyl)phenyl]-3-(4-fluorophenyl)urea], the IC50 was less than 2 µM. Still for that read-out and setting: the figure for `CCc1ccc(NC(=O)Nc2ccc(OC)cc2)cc1` [Compound 382, 1-(4-ethylphenyl)-3-(4-methoxyphenyl)urea] is less than 2 µM; for `CC(C)c1ccc(NC(=O)Nc2ccc(C#N)cc2)cc1` [Compound 345, 1-(4-cyanophenyl)-3-(4-isopropylphenyl)urea] it is less than 2 µM; for `CCOC(=O)c1ccc(NC(=O)Nc2cccc(OC)c2)cc1` [Compound 593, ethyl 4-({[(3-methoxyphenyl)amino]carbonyl}amino)benzoate] it is less than 2 µM.

For the compound `N#CCOc1ccc(NC(=O)Nc2cccc(F)c2)cc1` [Compound 466, 1-[4-(cyanomethoxy)phenyl]-3-(3-fluorophenyl)urea], the IC50 was less than 2 µM. With `CCOC(=O)c1ccc(NC(=O)Nc2ccc(O)cc2)cc1` [Compound 748, ethyl 4-({[(4-hydroxyphenyl)amino]carbonyl}amino)benzoate], the half-inhibitory concentration (IC50) was less than 2 µM. `Cc1ccc(NC(=O)Nc2ccc(F)cc2)cc1F` [Compound 430, 1-(3-fluoro-4-methylphenyl)-3-(4-fluorophenyl)urea]: the IC50 was less than 2 µM.

For `N#CCc1ccc(NC(=O)Nc2ccc(OC(F)F)cc2)cc1` [Compound 581, 1-[4-(cyanomethyl)phenyl]-3-[4-(difluoromethoxy)phenyl]urea], the IC50 is less than 2 µM. `O=C(Nc1cccc(F)c1)Nc1cccc(OC(F)F)c1` [Compound 371, 1-[3-(difluoromethoxy)phenyl]-3-(3-fluorophenyl)urea]: the IC50 was less than 2 µM.

For the compound `COC(=O)c1cccc(NC(=O)Nc2ccc(OC(F)F)cc2)c1` [Compound 679, methyl 3-[({[4-(difluoromethoxy)phenyl]amino}carbonyl)amino]benzoate], the IC50 is less than 2 µM. On to `Cc1cc(NC(=O)Nc2ccc(OC(F)F)cc2)ccc1F` [Compound 608, 1-[4-(difluoromethoxy)phenyl]-3-(4-fluoro-3-methylphenyl)urea], for which the IC50 is less than 2 µM. On to `CC(C)Oc1cccc(NC(=O)Nc2cccc(C#N)c2)c1` [Compound 418, 1-(3-cyanophenyl)-3-(3-isopropoxyphenyl)urea], for which the IC50 is less than 2 µM. Regarding `CCCc1ccc(NC(=O)Nc2ccc([N+](=O)[O-])cc2)cc1` [Compound 529, 1-(4-nitrophenyl)-3-(4-propylphenyl)urea], the IC50 is less than 2 µM. Take `CCOC(=O)c1ccc(NC(=O)Nc2ccc(C(C)C)cc2)cc1` [Compound 602, ethyl 4-({[(4-isopropylphenyl)amino]carbonyl}amino)benzoate]: the IC50 is less than 2 µM.

`CCCOc1ccc(NC(=O)Nc2ccccc2OC(F)F)cc1` [Compound 534, 1-[2-(difluoromethoxy)phenyl]-3-(4-propoxyphenyl)urea]: the IC50 was less than 2 µM. Regarding `O=C(Nc1ccc(Cl)cc1)Nc1ccc2c(c1)CCC2` [Compound 443, 1-(4-chlorophenyl)-3-(2,3-dihydro-1H-inden-5-yl)urea], the 50% inhibitory concentration (IC50) is less than 2 µM.

Still in this assay, the particulars now being: Table I; IC50 at CB1, GTP binding with 1 nM CP55,940; read-out: IC50.
As for `Cc1ccc(NC(=O)Nc2ccc(OC(F)F)cc2)cc1` [Compound 41, N-[4-(difluoromethoxy)phenyl]-N′-(4-methylphenyl)urea], the IC50 was less than 2 µM.

The same assay, now with this note: Table II; IC50 at CB1, GTP binding with 1 nM CP55,940; read-out: IC50.
Consider `O=C(Nc1ccc(COc2ccccc2)cc1)Nc1ccc(OC(F)F)cc1` [Compound 102, N-[4-(dif1uoromethoxy)phenyl]-N′-[4-(phenoxymethyl)phenyl]urea], for which the IC50 is less than 2 µM. As for `COCc1ccc(NC(=O)Nc2ccc(C(C)=O)cc2)cc1` [Compound 271, N-(4-acetylphenyl)-N′-[4-(methoxymethyl)phenyl]urea], the IC50 was less than 2 µM. For `CC(=O)c1cccc(NC(=O)Nc2cccc(OC(C)C)c2)c1` [Compound 277, N-(3-acetylphenyl)-N′-(3-isopropoxyphenyl)urea], the IC50 was less than 2 µM.

In the case of `Cc1cccc(NC(=O)Nc2cccc(-c3ccnc(C)n3)c2)c1` [Compound 163, N-(3-methylphenyl)-N′-[3-(2-methylpyrimidin-4-yl)phenyl]urea], the IC50 was less than 2 µM. Take `Cc1cc(C)cc(NC(=O)Nc2ccc(OC(F)F)cc2)c1` [Compound 89, N-[4-(difluoromethoxy)phenyl]-N′-(3,5-dimethylphenyl)urea]: the IC50 is less than 2 µM. Still for that read-out and setting: the value for `CCCc1ccc(NC(=O)Nc2ccc(C(C)=O)cc2)cc1` [Compound 200, N-(4-acetylphenyl)-N′-(4-propylphenyl)urea] was less than 2 µM; that for `O=C(Nc1cccc(OC(F)F)c1)Nc1ccc(N2CCOCC2)c(Cl)c1` [Compound 143, N-(3-chloro-4-morpholin-4-ylphenyl)-N′-[3-(difluoromethoxy)phenyl]urea] was less than 2 µM. Consider `O=C(Nc1ccc(Cl)cc1)Nc1ccc(OC(F)F)cc1` [Compound 257, N-(4-chlorophenyl)-N′-[4-(difluoromethoxy)phenyl]urea], for which the IC50 is less than 2 µM. For `CCOc1ccc(NC(=O)Nc2ccc(C#N)cc2)cc1` [Compound 264, N-(4-cyanophenyl)-N′-(4-ethoxyphenyl)urea], the IC50 was less than 2 µM. As to `CCOc1cccc(NC(=O)Nc2ccccc2)c1` [Compound 222, N-(3-ethoxyphenyl)-N′-phenylurea], the IC50 is less than 2 µM. For the compound `O=C(Nc1cccc(F)c1)Nc1cccc(OC(F)F)c1` [Compound 219, N-[3-(difluoromethoxy)phenyl]-N′-(3-fluorophenyl)urea], the 50% inhibitory concentration (IC50) is less than 2 µM. As for `O=C(Nc1ccc(OC(F)F)cc1)Nc1ccc(C(F)(F)F)cc1` [Compound 77, N-[4-(difluoromethoxy)phenyl]-N′-[4-(trifluoromethyl)phenyl]urea], the 50% inhibitory concentration (IC50) is less than 2 µM. Turning to `O=C(Nc1ccc(OC(F)F)cc1)Nc1cccc(-c2cnc3ccccc3c2)c1` [Compound 69, N-[4-(difluoromethoxy)phenyl]-N′-(3-quinolin-3-ylphenyl)urea], the IC50 was less than 2 µM. As to `COCc1ccc(NC(=O)Nc2cccc(Cl)c2)cc1` [Compound 241, N-(3-chlorophenyl)-N′-[4-(methoxymethyl)phenyl]urea], the IC50 was less than 2 µM. `Cc1ccc(NC(=O)Nc2ccc(F)cc2)cc1` [Compound 172, N-(4-fluorophenyl)-N′-(4-methylphenyl)urea]: the IC50 was less than 2 µM. Still for that read-out and setting: the value for `COc1cc(NC(=O)Nc2ccc(OC(F)F)cc2)ncn1` [Compound 79, N-[4-(difluorornethoxy)phenyl]-N′-(6-methoxypyrimidin-4-yl)urea] was less than 2 µM; that for `CCCOc1ccc(NC(=O)Nc2ccc(Cl)cc2)cc1` [Compound 245, N-(4-chlorophenyl)-N′-(4-propoxyphenyl)urea] was less than 2 µM. Regarding `COc1ccc(NC(=O)Nc2ccc(C(C)=O)cc2)cc1` [Compound 260, N-(4-acetylphenyl)-N′-(4-methoxyphenyl)urea], the IC50 is less than 2 µM. In the case of `CCOc1cccc(NC(=O)Nc2cccc(CC)c2)c1` [Compound 230, N-(3-ethoxyphenyl)-N′-(3-ethylphenyl)urea], the IC50 was less than 2 µM. Consider `CCc1ccc(NC(=O)Nc2ccc(OC)cc2)cc1` [Compound 228, N-(4-ethylphenyl)-N′-(4-methoxyphenyl)urea], for which the IC50 is less than 2 µM. On to `O=C(Nc1ccc(F)cc1)Nc1ccc(OC(F)F)cc1` [Compound 221, N-[4-(difluoromethoxy)phenyl]-N′-(4-fluorophenyl)urea], for which the IC50 was less than 2 µM. On to `COCc1ccc(NC(=O)Nc2ccc(Cl)cc2)cc1` [Compound 242, N-(4-chlorophenyl)-N′-[4-(methoxymethyl)phenyl]urea], for which the IC50 is less than 2 µM.
